Measured values: US6121320A, “Combination anti-leukemic therapy by utilizing suramin and biologic response modifiers” (The University of Kentucky Research Foundation, priority 1998, dated 2000)
Like-named read-outs stand apart in the source and are kept apart here.

How the values were obtained:
[1] = tested on: acute promyelocytic leukemia (APL); details: cited from earlier work
[2] = tested on: HL-60; assay: HL-60 leukemia cell proliferation (MTT), single agents and combinations, CI-isobologram analysis; format: cell-based, human
Experimental: (§1) Assays of proliferation consist of cell proliferation (3H-thymidine) assay as previously described or the MTT assay after 3-5 days of exposure to the agents. Cell proliferation is assayed using a modification of the original MTT calorimetric assay described by Mosmann (53). To better delineate the issues of proliferation (and inhibition thereof) versus differentiation, which is induced by certain of the agents being proposed for testing, an alternative method would utilize simple cell counting (Courter, Inc.) of aliquots at 3 and 5 days of continuous exposure with concomitant analysis of induced differentiation by cell morphology (NBT-positive) conducted. The percentage of differentiated cells in liquid culture determined by the NBT reduction test (as described, (54) allows for an estimate of the total number of cells which are still blast cells and therefore considered capable of continued leukemogenic growth. The most promising combinations are used to examine de novo acute myeloid leukemia patient samples in like fashion.
The antigrowth factor activity of suramin was tested alone and in combination with all-trans retinoic acid (ATRA) against the human leukemic line HL-60 or its ATRA resistant subclone, HL-60R, to assess if an agent with the ability to interrupt putative autocrine driven leukemic cell growth could reestablish sensitivity to ATRA. […] Synergy or antagonism between combinations was then assessed using a combination-index CI-isobolo gram method.
Cell lines chosen for this study include the ATRA sensitive human acute leukemia HL-60 and the ATRA resistant subclone, HL-60R. While originally described as an acute promyelocytic cell line, more recent work categorizes this line as an acute myelogenous leukemia. The sensitivity of these cell lines to ATRA and suramin alone as single agents has been assessed. […] The assays of proliferation consist of cell proliferation after 3-5 days of exposure to the agents. Cell proliferation is assayed using a modification of the original MTT calorimetric assay described by Mossman, et al. In similar fashion, a dose response curve to cytosine arabinoside has been generated. Using the IC50 values for each agent alone allows selection of reasonable drug combinations. The data software program, "Dose effect analysis with microcomputers" (BioSoft, Inc.) developed by Dr. Chou, et al. is utilized. This computer analysis program allows the assessment of drug combinations for synergistic, additive, or antagonistic interactions.

[3] = molecular target: rhGM-CSF (Homo sapiens, UniProt P04141); assay: Competition for nucleotide photoprobe incorporation into rhGM-CSF; format: binding
Chain of rhGM-CSF (P04141 18-144): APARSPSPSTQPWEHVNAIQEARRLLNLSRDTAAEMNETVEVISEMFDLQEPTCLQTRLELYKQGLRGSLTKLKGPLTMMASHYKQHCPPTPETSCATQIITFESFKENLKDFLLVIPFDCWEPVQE

[4] = tested on: Mo7E; assay: Proliferation of GM-CSF dependent Mo7E cells; format: cell-based, human; details: read-out: Half-maximal inhibition of Mo/7E growth (GM-CSF dependent)
Description: control. Similarly, cell proliferating of GM-CSF
dependent (Mo7E) and autonomously proliferation (GM-CSF
independent) human leukemia cells (HL-60) gave half-
maximal inhibition of growth. Results are expressed as […]

[5] = tested on: HL-60R; assay: HL-60R (ATRA resistant subclone) proliferation (MTT), single agents and combinations; format: cell-based, human
Experimental: as §1, with “fashion. […]” for “fashion.”
Cell lines chosen for this study include the ATRA sensitive human acute leukemia HL-60 and the ATRA resistant subclone, HL-60R. […] The sensitivity of these cell lines to ATRA and suramin alone as single agents has been assessed. […]

[6] = tested on: follicular lymphoma; details: evaluable follicular lymphoma patients; cited from earlier work
[7] = tested on: HL-60; details: HL-60 in vitro, reference 48; cited from earlier work
[8] = tested on: NB4; assay: Activity against NB4 leukemia cells; format: cell-based, human
Experimental: While originally described as an acute promyelocytic cell line, more recent work categorizes this line as an acute myelogenous leukemia.
as §1

[9] = Homo sapiens, HL-60, 120 h, read-out: Fractional Inhibition
[10] = photoprobe incorporation into rhGM-CSF compared to control, read-out: Half-maximal inhibition of nucleotide binding
[11] = Homo sapiens, HL-60, autonomously proliferating cells, read-out: Half-maximal inhibition of HL-60 growth (GM-CSF independent)

CC1=C(/C=C/C(C)=C/C=C/C(C)=C/C(=O)O)C(C)(C)CCC1 [ATRA, all-trans retinoic acid]
Patients resistant to ATRA at diagnosis or relapsing ([1]; APL): 30-40% | Complete remission rate ([1]; ATRA as a single agent in APL): ≥ 70% | Patients with long term remissions ([1]; ATRA treatment followed by chemotherapy): 60% | Patients with ATRA syndrome ([1]; subset of APL patients, fever, respiratory distress, chest x-ray abnormalities, weight gain): 5-20% | m (slope of the median-effect plot) ([2]; HL60, 5 days exposure): .2729 | IC50 ([2]; Homo sapiens, HL-60, 120 h, read-out: Dm (antilog of x-intercept of the median-effect plot, the potency (IC50))): 0.00022 µM | inhibition at 0.001 µM [2, 9]: 56.1% | inhibition at 0.01 µM [2, 9]: 77.7% | inhibition at 0.02 µM [2, 9]: 79% | inhibition at 0.04 µM [2, 9]: 82.3% | inhibition at 0.08 µM [2, 9]: 82.6% | inhibition at 0.16 µM [2, 9]: 83.5%

O=C(Nc1cccc(C(=O)Nc2ccc(S(=O)(=O)O)c3cc(S(=O)(=O)O)cc(S(=O)(=O)O)c23)c1)Nc1cccc(C(=O)Nc2ccc(S(=O)(=O)O)c3cc(S(=O)(=O)O)cc(S(=O)(=O)O)c23)c1 [NF023]
IC50 [3, 10]: 5 µM | IC50 ([4]; Homo sapiens, Mo7e): 102 µM | IC50 [2, 11]: 175 µM

O=C(Nc1cc(C(=O)Nc2ccc(S(=O)(=O)O)cc2)cc(C(=O)Nc2ccc(S(=O)(=O)O)cc2)c1)Nc1cc(C(=O)Nc2ccc(S(=O)(=O)O)cc2)cc(C(=O)Nc2ccc(S(=O)(=O)O)cc2)c1 [NF110]
IC50 [3, 10]: 1.5 µM | Enhanced activity ([5]; against HL-60R, relative to suramin): 5-10 fold | IC50 [4]: 52 µM | Enhanced activity ([2]; against HL-60, relative to suramin): 5-10 fold | IC50 ([2]; autonomously proliferating cells, read-out: Half-maximal inhibition of HL-60 growth (GM-CSF independent)): 6 µM

Cc1ccc(C(=O)Nc2ccc(S(=O)(=O)O)c3cc(S(=O)(=O)O)cc(S(=O)(=O)O)c23)cc1NC(=O)c1cccc(NC(=O)Nc2cccc(C(=O)Nc3cc(C(=O)Nc4ccc(S(=O)(=O)O)c5cc(S(=O)(=O)O)cc(S(=O)(=O)O)c45)ccc3C)c2)c1 [suramin]
Patients achieving partial remission [6]: five of nine | Suppression of proliferation, in words [7]: strongly suppress | IC50 [3]: 2.5 µM | Inhibition of growth, in words ([5]; HL-60R): active | IC50 ([4]; Homo sapiens, Mo7e): 68 µM | Activity, in words [8]: active | m (slope of the median-effect plot) ([2]; HL60, 5 days exposure): 1.725 | Inhibition of growth, in words ([2]; HL-60): active | IC50 ([2]; Homo sapiens, HL-60, 120 h, HL60, 5 days exposure, doses printed in μM, read-out: Dm (antilog of x-intercept of the median-effect plot, the potency (IC50))): 38.7 µM | inhibition at 3.5 µM ([2]; Homo sapiens, HL-60, 120 h, suramin 3.5 μM, HL60, 5 days exposure, read-out: Fractional Inhibition): 2% | inhibition at 7 µM ([2]; Homo sapiens, HL-60, 120 h, suramin 7.0 μM, HL60, 5 days exposure, read-out: Fractional Inhibition): 4.7% | inhibition at 14 µM ([2]; Homo sapiens, HL-60, 120 h, suramin 14.0 μM, HL60, 5 days exposure, read-out: Fractional Inhibition): 9.3% | inhibition at 28 µM ([2]; Homo sapiens, HL-60, 120 h, suramin 28.0 μM, HL60, 5 days exposure, read-out: Fractional Inhibition): 41.9% | inhibition at 56 µM ([2]; Homo sapiens, HL-60, 120 h, suramin 56.0 μM, HL60, 5 days exposure, read-out: Fractional Inhibition): 67.8% | IC50 [2, 11]: 38 µM
